In patent publication US7981912B2, “Indole acetic acids exhibiting CRTH2 receptor antagonism and uses thereof” (Wyeth LLC, priority 2004, dated 2011):

What follows are compounds tested against T1, human CRTH2 (Homo sapiens, UniProt Q9Y5Y4) (assay: CRTH-2 binding assay (scintillation proximity assay, inhibition of 3H-PGD2 binding)). Conditions: inhibition of 3H-PGD2 (3.6 nM) binding to HEK 293EBNA-hCRTH2 membranes; Ki calculated from IC50.
T1 sequence (Q9Y5Y4 1-395): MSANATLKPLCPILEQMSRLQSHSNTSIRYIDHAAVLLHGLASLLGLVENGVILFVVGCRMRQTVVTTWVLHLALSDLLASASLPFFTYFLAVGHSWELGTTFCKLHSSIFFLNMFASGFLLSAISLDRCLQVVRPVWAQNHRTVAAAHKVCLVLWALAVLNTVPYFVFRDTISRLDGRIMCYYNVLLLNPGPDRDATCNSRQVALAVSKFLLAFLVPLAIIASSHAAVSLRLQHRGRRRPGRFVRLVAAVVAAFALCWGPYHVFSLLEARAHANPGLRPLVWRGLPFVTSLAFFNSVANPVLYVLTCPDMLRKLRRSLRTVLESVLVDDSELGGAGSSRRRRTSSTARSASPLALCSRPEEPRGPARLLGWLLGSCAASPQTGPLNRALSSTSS
Set-up: expressed in transfected cells; host or cells: HEK 293EBNA-hCRTH2 (membrane preparation)
Description: A CRTH2 binding assay was developed to measure the ability of compounds to inhibit the binding of PGD2 to human CRTH2 using a scintillation proximity assay.
Membranes containing hCRTH2 receptors were prepared from HEK 293EBNA-hCRTH2 cells (a HEK 293EBNA cell line stably expressing human CRTH2). The cells were grown to confluency, harvested and washed with PBS. The cells were resuspended in 10 mM Hepes pH 7.4, 1 mM EDTA and protease inhibitors and incubated for 30 min on ice. The cells were homogenized and centrifuged for 10 min at 1000×g. The supernate was centrifuged for 30 min at 100,000×g and the membrane pellet was then resusupended in 10 mM Hepes pH 7.4 and 1 mM EDTA. The protein concentration of the membrane preparation was determined by Bradford assay (Bio-Rad).
The ability of compounds to inhibit the interaction of PGD2 to human CRTH2 was determined at seven compound concentrations. Compounds were serially diluted in DMSO then diluted into CRTH2 buffer without glycerol (10 mM Hepes pH 7.4, 1 mM EDTA, 10 mM MnCl2) to six times the final desired concentration. 20 μL of the diluted compounds were transferred into non-surface binding 96 well plates (Corning). Each concentration was done in triplicate. In addition to test compounds, each plate contained 12 control wells. Six of these wells contained 20 μL of CRTH2 buffer without glycerol. These wells were used to measure total binding. Six wells contained 20 μL of CRTH2 buffer without glycerol plus 1.5 mM indomethacin. These wells were used to measure non-specific binding. Next, HEK 293EBNA-hCRTH2 membranes were resuspended in CRTH2 buffer with glycerol (10 mM Hepes pH 7.4, 1 mM EDTA, 10 mM MnCl2, 25% glycerol) so that the final concentration was approximately 20 μg protein/100 μL. Polylysine coated yttrium silicate SPA beads (Amershamn) were added to the membrane mix to a concentration of 0.4 mg/100 μL and finally ^3H-PGD2 was added to the membrane/SPA bead mix to 3.6 nM. 100 μL of the membrane/SPA bead/^3H-PGD2 mix was added to each well of the non-surface binding plates containing the diluted compound plus controls. The plates were incubated for 2 hours at room temperature with shaking and then the plates were counted on a Microbeta scintillation counter (Perkin Elmer) for 1 min per well.
IC50 values were determined from the experimental results by nonlinear regression using Prism 4.0 software. The IC50 values were then used in conjunction with the […] for hCRTH2 and the ^3H-PGD2 concentration used in the experiment to calculate the Ki for each compound.

Ki	Compound
< 1000 nM	Cc1c(C2c3ccccc3S(=O)(=O)N2CC2COc3ccccc3O2)c2ccccc2n1CC(=O)O (centres unmarked) [Example 41, {3-[2-(2,3-Dihydro-benzo[1,4]dioxin-2-ylmethyl)-1,1-dioxo-2,3-dihydro-1H-1λ^6-benzo[d]isothiazol-3-yl]-2-methyl-indol-1-yl}-acetic acid]
< 100 nM	Cc1c(C2=NN(CCc3ccccc3)S(=O)(=O)c3ccccc32)c2ccccc2n1CC(=O)O [Example 19, [3-(1,1-Dioxo-2-phenethyl-1,2-dihydro-1λ^6-benzo[e][1,2,3]thiadiazin-4-yl)-2-methyl-indol-1-yl]-acetic acid]
< 100 nM	Cc1c(-c2ccc(=O)n(Cc3ccccc3)n2)c2cc(Cl)ccc2n1CC(=O)O [Example 21, [3-(1-Benzyl-6-oxo-1,6-dihydro-pyridazin-3-yl)-5-chloro-2-methyl-indol-1-yl]-acetic acid]
< 1000 nM	COc1ccc2c(c1)c(C1c3ccccc3S(=O)(=O)N1Cc1ccc(F)cc1)cn2CC(=O)O (centres unmarked) [Example 54, {3-[2-(4-Fluoro-benzyl)-1,1-dioxo-2,3-dihydro-1H-1λ^6-benzo[d]isothiazol-3-yl]-5-methoxy-indol-1-yl}-acetic acid]
< 1000 nM	O=C(O)Cn1cc(C2c3ccccc3S(=O)(=O)N2Cc2csc(-c3cccs3)n2)c2ccccc21 (centres unmarked) [Example 33, {3-[1,1-Dioxo-2-(2-thiophen-2-yl-thiazol-4-ylmethyl)-2,3-dihydro-1H-1λ^6-benzo[d]isothiazol-3-yl]-indol-1-yl}-acetic acid]
< 100 nM	Cc1noc(C)c1CN1C(c2cn(CC(=O)O)c3ccccc23)c2ccccc2S1(=O)=O (centres unmarked) [Example 35, {3-[2-(3,5-Dimethyl-isoxazol-4-ylmethyl)-1,1-dioxo-2,3-dihydro-1H-1λ^6benzo[d]isothiazol-3-yl]-indol-1-yl}-acetic acid]
< 10000 nM	CN1N=C(c2cn(CC(=O)O)c3ccccc23)c2ccccc2S1(=O)=O [Example 18, [3-(2-Methyl-1,1-dioxo-1,2-dihydro-1λ6-benzo[e][1,2,3]thiadiazin-4-yl)-indol-1-yl]-acetic acid]
< 1000 nM	Cc1noc(C)c1CN1C(=O)c2ccccc2C1c1cn(CC(=O)O)c2ccccc12 (centres unmarked) [Example 22, {3-[2-(3,5-Dimethyl-isoxazol-4-ylmethyl)-3-oxo-2,3-dihydro-1H-isoindol-1-yl]-indol-1-yl}-acetic acid]
< 10000 nM	COCCCN1C(c2cn(CC(=O)O)c3ccc(C)cc23)c2ccccc2S1(=O)=O (centres unmarked) [Example 52, {3-[2-(3-Methoxy-propyl)-1,1-dioxo-2,3-dihydro-1H-1λ^6-benzo[d]isothiazol-3-yl]-5-methyl-indol-1-yl}-acetic acid]
< 1000 nM	O=C(O)Cn1cc(C2c3ccccc3S(=O)(=O)N2Cc2ccccc2-c2ccccc2)c2ccccc21 (centres unmarked) [Example 32, [3-(2-Biphenyl-2-ylmethyl-1,1-dioxo-2,3-dihydro-1H-1λ^6-benzo[d]isothiazol-3-yl)-indol-1-yl]-acetic acid]
< 1000 nM	Cc1c(C2c3ccccc3S(=O)(=O)N2Cc2cccc(C(F)(F)F)c2)c2ccccc2n1CC(=O)O (centres unmarked) [Example 43, {3-[1,1-Dioxo-2-(3-trifluoromethyl-benzyl)-2,3-dihydro-1H-1λ^6-benzo[d]isothiazol-3-yl]-2-methyl-indol-1-yl}-acetic acid]
< 1000 nM	Cc1c(C2=NN(Cc3cccc(C(F)(F)F)c3)S(=O)(=O)c3ccccc32)c2cc(F)ccc2n1CC(=O)O [Example 85, {3-[2-(3-Trifluoromethyl-benzyl)-1,1-dioxo-1,2-dihydro-1λ^6-benzo[e][1,2,3]thiadiazin-4-yl]-5-fluoro-2-methyl-indol-1-yl}-acetic acid]
< 1000 nM	Cc1c(C2=NN(CCc3ccccc3)S(=O)(=O)c3ccccc32)c2cc(F)ccc2n1CC(=O)O [Example 87, {3-[2-phenethyl-1,1-dioxo-1,2-dihydro-1λ^6-benzo[e][1,2,3]thiadiazin-4-yl]-5-fluoro-2-methyl-indol-1-yl}-acetic acid]
< 1000 nM	Cc1c(C2c3ccccc3S(=O)(=O)N2CCCOc2ccccc2)c2ccccc2n1CC(=O)O (centres unmarked) [Example 46, {3-[1,1-Dioxo-2-(3-phenoxy-propyl)-2,3-dihydro-1H-1λ^6-benzo[d]isothiazol-3-yl]-2-methyl-indol-1-yl}-acetic acid]
< 10000 nM	Cc1ccc2c(c1)c(C1NS(=O)(=O)c3ccccc31)c(C)n2CC(=O)O (centres unmarked) [Example 7, [3-(1,1-Dioxo-2,3-dihydro-1H-1λ^6-benzo[d]isothiazol-3-yl)-2,5-dimethyl-indol-1-yl]-acetic acid]
< 100 nM	CCCN1N=C(c2c(C)n(CC(=O)O)c3ccc(F)cc23)c2ccccc2S1(=O)=O [Example 92, [3-(2-Propyl-1,1-dioxo-1,2-dihydro-1λ^6-benzo[e][1,2,3]thiadiazin-4-yl)-5-fluoro-2-methyl-indol-1-yl]-acetic acid]
< 1000 nM	Cc1c(C2=NN(Cc3ccccc3)C(=O)C3CC=CCC23)c2ccccc2n1CC(=O)O (centres unmarked) [Example 71, [3-(3-Benzyl-4-oxo-3,4,4a,5,8,8a-hexahydro-phthalazin-1-yl)-2-methyl-indol-1-yl]-acetic acid]
< 100 nM	Cc1c(-c2nn(CC3COc4ccccc4O3)c(=O)c3ccccc23)c2cc(Cl)ccc2n1CC(=O)O (centres unmarked) [Example 27, {5-Chloro-3-[3-(2,3-dihydro-benzo[1,4]dioxin-2-ylmethyl)-4-oxo-3,4-dihydro-phthalazin-1-yl]-2-methyl-indol-1-yl}-acetic acid]
< 1000 nM	Cc1c(C2NS(=O)(=O)c3cc(F)ccc32)c2ccccc2n1CC(=O)O (centres unmarked) [Example 13, [3-(6-Fluoro-1,1-dioxo-2,3-dihydro-1H-1λ^6-benzo[d]isothiazol-3-yl)-2-methyl-indol-1-yl]-acetic acid]
< 1000 nM	O=C(O)Cn1cc(-c2nn(Cc3ccccc3)c(=O)c3ccccc23)c2ccccc21 [Example 15, [3-(3-Benzyl-4-oxo-3,4-dihydro-phthalazin-1-yl)-indol-1-yl]-acetic acid]
< 100 nM	Cc1c(C2=NN(C3CCCCC3)S(=O)(=O)c3ccccc32)c2cc(F)ccc2n1CC(=O)O [Example 94, [3-(2-Cyclohexyl-1,1-dioxo-1,2-dihydro-1λ^6-benzo[e][1,2,3]thiadiazin-4-yl)-5-fluoro-2-methyl-indol-1-yl]-acetic acid]
< 1000 nM	Cc1c(C2c3ccccc3S(=O)(=O)N2Cc2ccc(F)cc2)c2cc(Cl)ccc2n1CC(=O)O (centres unmarked) [Example 60, {5-Chloro-3-[2-(4-fluoro-benzyl)-1,1-dioxo-2,3-dihydro-1H-1λ^6-benzo[d]isothiazol-3-yl]-2-methyl-indol-1-yl}-acetic acid]
< 100 nM	Cc1c(-c2nn(CCOc3ccc(Cl)cc3)c(=O)c3ccccc23)c2cc(Cl)ccc2n1CC(=O)O [Example 25, (5-Chloro-3-{3-[2-(4-chloro-phenoxy)-ethyl]-4-oxo-3,4-dihydro-phthalazin-1-yl}-2-methyl-indol-1-yl)-acetic acid]
< 1000 nM	O=C(O)Cn1cc(C2=NN(Cc3ccccc3)S(=O)(=O)c3ccccc32)c2ccccc21 [Example 17, [3-(2-Benzyl-1,1-dioxo-1,2-dihydro-1λ6-benzo[e][1,2,3]thiadiazin-4-yl)-indol-1-yl]-acetic acid]
< 10000 nM	N#Cc1ccc2c(c1)c(C1NS(=O)(=O)c3ccccc31)cn2CC(=O)O (centres unmarked) [Example 9, [5-Cyano-3-(1,1-dioxo-2,3-dihydro-1H-1λ^6-benzo[d]isothiazol-3-yl)-indol-1-yl]-acetic acid]
< 100 nM	Cc1noc(C)c1CN1C(c2c(C)n(CC(=O)O)c3ccccc23)CCS1(=O)=O (centres unmarked) [Example 69, {3-[2-(3,5-Dimethyl-isoxazol-4-ylmethyl)-1,1-dioxo-λ^6-isothiazolidin-3-yl]-2-methyl-indol-1-yl}-acetic acid]
